In publication PMC8092209, “Structural Basis of Ligand Selectivity by a Bacterial Adhesin Lectin Involved in Multispecies Biofilm Formation” (mBio, 2021):
“And” between values parts separate entries of the source, which are not always exact repeats. Equal entries are not always repeated.

Key:
MpPA14 [1] = molecular target: T1, MpPA14 (Marinomonas primoryensis, UniProt A1YIY3); test: Dextran-based comparative competition assay (MpPA14); assay type: binding
Text: To gain insight into the binding specificity of MpPA14, we investigated the relative affinity of various monosaccharides for the lectin by a comparative competition assay ([12]). MpPA14 bound to Superdex resin was competitively released into solution by the progressive addition of free sugars. The released protein concentrations measured by absorbance at 280 nm were plotted as a function of free sugar concentration to produce semiquantitative binding curves (Fig. 1A and B). The apparent dissociation constant (Kdapp) calculated from these binding curves was used as a relative measure of affinity for each assayed sugar (Table 1). […] D-Ribose bound […] more strongly than its derivative 2-deoxy-D-ribose (Kdapp of 6.8 mM as opposed to 18 mM; Fig. 1B and Table 1).
(§1) The dextran resin competition assay was performed as previously described for MhPA14 ([12]). Briefly, Superdex 200 (S200) resin was washed twice with 50 mM Tris-HCl (pH 9), 150 mM NaCl, and 5 mM CaCl2. One ml of 1 mg/ml MpPA14 with green fluorescent protein (GFP) fused to its N terminus (GFP-MpPA14) or VcPA14 labeled with FITC was suspended with 300 μl of equilibrated Superdex 200 (S200) resin. Following an incubation period with gentle mixing, the S200 resin bound with GFP-MpPA14 was pelleted by centrifugation. The pellet was washed twice with 50 mM Tris-HCl (pH 9), 150 mM NaCl, and 5 mM CaCl2, and the A280 of the supernatant from the second wash was used as the baseline reading. Next, after resuspension in the same buffer, aliquots of 1.67 μmol saccharide were sequentially added to the solution six or seven times, with the A280 of the supernatant being measured after each addition to quantify the release of lectin. The final addition of saccharide was […]. Data from the dextran affinity assay were plotted using GraphPad Prism after subtracting the background. Next, the data were fitted to a nonlinear regression of one-site-specific binding, which follows the model y/Bmax = x/(Kd + x), with Bmax as the maximum specific binding and Kd as the equilibrium binding constant.

MpPA14 [2] = molecular target: T1, MpPA14; test: Isothermal titration calorimetry; assay type: binding; conditions: 30°C; for ΔH (enthalpy) / ΔS (entropy) / binding stoichiometry (N value): ITC; for binding stoichiometry (N value): one-binding-site model; for Kd: Kd (dissociation constant, ITC), free sugar in solution
Text: The ITC measurements produced rectangular hyperbolic curves for all three simple saccharides, and fitted well to a one-binding-site model with calculated binding stoichiometry (N) values being close to 1 ([12], [21]). […] However, this is to be expected, because the dextran beads used in the competition assay have multiple binding sites nearby that attract the lectin, whereas the calorimetry was done with free sugars in solution. […] In general, the affinity of lectins for monosaccharides (Kd values) lies within the high micromolar to millimolar range ([8], [30], [31]). […] Furthermore, negative enthalpy (ΔH) and entropy (ΔS) contributions were calculated for all three carbohydrates when they bound to MpPA14, which indicated the binding was driven primarily by polar interaction such as the formation of hydrogen and ionic bonds rather than by hydrophobic interactions. This was consistent with the observation that the Ca^2+-dependent ligand-binding site of MpPA14 consisted of mainly polar and charged amino acids without any residues with large hydrophobic side chains. We therefore acquired detailed structural information to study MpPA14 ligand recognition.
Isothermal titration calorimetry (ITC) measurements were performed at 30°C with a MicroCal VP-ITC instrument (Malvern). […] Sugars were automatically added by a rotating syringe (400 rpm) at 5-min intervals into the MpPA14 solution for a total of 50 injections. The data were analyzed with Origin software version 5.0 (MicroCal).

[3] = tested on: FITC-labeled MpPA14 binding to the diatom Chaetoceros neogracile; test: Diatom binding experiment with FITC-MpPA14; assay type: cell-based
Text: C. neogracile is a psychrophilic marine diatom found in Antarctic waters ([50]). […] Each diatom cell has 1 to 4 projections protruding from the corners. Given its photosynthetic capability, C. neogracile contains chlorophyll that is intrinsically fluorescent. […] We reason that glycans coating the diatom cell membrane present numerous end group binding sites in close proximity that can serve as a “molecular Velcro” for MpPA14 binding ([30]).
The Antarctic diatom, Chaetoceros neogracile, was cultured as previously described ([21], [50]). FITC-labeled MpPA14 or VcPA14 (FITC-MpPA14 or FITC-VcPA14, 0.2 mg/ml) in the presence or absence of sugars was incubated with diatoms in buffer (50 mM Tris-HCl [pH 9], 300 mM NaCl, and 5 mM CaCl2) with gentle mixing for 2 h. Next, diatoms were pelleted by centrifugation for 3 min at 7,000 rpm, and the resulting supernatant was discarded. This procedure was repeated three times to wash away unbound FITC-MpPA14 before the diatom pellet was finally resuspended in 20 μl buffer, which was then used to make slides for fluorescence microscopy. In a separate experiment to test if fucose could compete off the MpPA14 that was already bound to diatoms, FITC-MpPA14 was incubated with diatom for 1.5 h before fucose was added. The rest of the experiment followed the same procedure as described above.
Images were obtained using an Olympus IX83 inverted fluorescence microscope equipped with an Andor Zyla 4.2 Plus camera. Quantification of the fluorescence intensity was done using Fiji ImageJ. The corrected total cell fluorescence (CTCF) was calculated using the following formula: CTCF = integrated density − (area of selected cell × mean fluorescence of the background) ([60]). Quantification of 30 individual diatom cells was done for each treatment. Graphs were made using GraphPad Prism.

[4] = tested on: FITC-labeled VcPA14 binding to C. neogracile; test: Diatom binding experiment with FITC-VcPA14; assay type: cell-based, Chaetoceros neogracile; conditions: 0.5 mM sugar
Procedure: (§2) As proof of concept for the antiadhesion strategy that targets microbial pathogens, we studied the VcPA14 lectin domain from a large 6,938-amino-acid RTX adhesin (GenBank accession number WP_154597608) of the cholera-causing bacterium, V. cholerae. As discussed, VcPA14 has a similar ligand-binding site as that of MpPA14 (Fig. S1), with key sugar-binding residues conserved (Fig. S1G).
The Antarctic diatom, Chaetoceros neogracile, was cultured as previously described ([21], [50]). FITC-labeled MpPA14 or VcPA14 (FITC-MpPA14 or FITC-VcPA14, 0.2 mg/ml) in the presence or absence of sugars was incubated with diatoms in buffer (50 mM Tris-HCl [pH 9], 300 mM NaCl, and 5 mM CaCl2) with gentle mixing for 2 h. […] This procedure was repeated three times to wash away unbound FITC-MpPA14 before the diatom pellet was finally resuspended in 20 μl buffer, which was then used to make slides for fluorescence microscopy. […]
Images were obtained using an Olympus IX83 inverted fluorescence microscope equipped with an Andor Zyla 4.2 Plus camera. Quantification of the fluorescence intensity was done using Fiji ImageJ. The corrected total cell fluorescence (CTCF) was calculated using the following formula: CTCF = integrated density − (area of selected cell × mean fluorescence of the background) ([60]). Quantification of 30 individual diatom cells was done for each treatment. […]

VcPA14 = test: Dextran-based comparative competition assay (VcPA14); assay type: binding, Vibrio cholerae; conditions: FITC-VcPA14 on Superdex 200 resin
Procedure: as §2
as §1, with “Data from the dextran affinity assay were plotted using GraphPad Prism after subtracting the background. Next, the data were fitted to a nonlinear regression of one-site-specific binding, which follows the model y/Bmax = x/(Kd + x), with Bmax as the maximum specific binding and Kd as the equilibrium binding constant.” left out

[5] = GFP-MpPA14 bound to Superdex 200 resin released by free sugar, A280, pH 9, 5 mM CaCl2, – = no detectable binding (footnote a), read-out: Kdapp (apparent dissociation constant)

T1 sequence (A1YIY3 entry or part of it): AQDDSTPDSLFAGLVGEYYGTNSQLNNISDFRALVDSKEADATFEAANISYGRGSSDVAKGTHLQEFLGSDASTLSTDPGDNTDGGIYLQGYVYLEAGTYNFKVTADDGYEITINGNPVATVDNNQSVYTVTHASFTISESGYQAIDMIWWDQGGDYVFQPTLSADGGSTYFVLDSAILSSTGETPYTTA

CO[C@@H]([C@H](O)[C@H](O)CO)[C@@H](O)C=O [3-O-methyl-glucose, 3-O-methyl-D-glucose]
Kd (MpPA14 [1]): 5.7 mM

O=C[C@H](O)[C@@H](O)[C@@H](O)[C@H](O)CO [Galactose, D-galactose]
Kd (MpPA14 [1]): 4.1 mM

OC[C@H]1OC(O)[C@H](O)[C@@H](O)[C@@H]1O (stereo partly shown) [Glucose]
ΔH (enthalpy) (MpPA14 [2]): -10,880 ± 42.71 cal/mol | ΔS (entropy) (MpPA14 [2]): -20.1 cal/ mol/K | binding stoichiometry (N value) (MpPA14 [2]): 0.952 ± 0.0216 | Kd (MpPA14 [2]): 0.35 mM | Kd (MpPA14 [1]): 1.36 mM and 1.4 mM

O[C@H]1[C@H](O)[C@@H](O)[C@H](O)[C@@H](O)[C@H]1O [Inositol, myo-inositol]
Kd (MpPA14 [1]): 2.7 mM

C[C@H](O)[C@@H](O)[C@@H](O)[C@H](O)C=O [L-Fucose, L-fucose]
fluorescent signal displaced (competitive effect) ([3]; 0.1 mM sugar, 0.2 mg/ml FITC-MpPA14): ~40% | effect on diatoms precoated with FITC-labeled MpPA14 (in words) ([3]; 0.5 mM sugar added after 1.5 h incubation of lectin with diatoms): resulted in the dissociation of the lectin from the cells | fluorescent signal displaced ([3]; 0.5 mM sugar, 0.2 mg/ml FITC-MpPA14): 95% | ΔH (enthalpy) (MpPA14 [2]): -11,800 ± 191.8 cal/mol | ΔS (entropy) (MpPA14 [2]): -21.4 cal/ mol/K | binding stoichiometry (N value) (MpPA14 [2]): 1.01 ± 0.0131 | Kd (MpPA14 [2]): 0.147 mM and ~0.15 mM | Kd (MpPA14 [1]): 0.65 mM | blocking of FITC-VcPA14 binding to C. neogracile (in words) [4]: largely blocked

OC[C@H]1OC(O)[C@@H](O)[C@@H](O)[C@@H]1O (stereo partly drawn) [Mannose, D-Mannose]
Kd (MpPA14 [1]): 1.7 mM

COC1OC(CO)C(O)C(O)C1O [Methyl-α-glucose, methyl-α-D-glucose]
Kd (MpPA14 [1]; [5]): 2.1 mM

CC(=O)N[C@@H]1[C@@H](O)[C@@H](O)[C@@H](CO)O[C@@H]1O [N-acetyl-galactosamine]
prevention of lectin binding to the diatom (in words) ([3]; 50 mM sugar, 0.2 mg/ml FITC-MpPA14): unable to prevent the lectin from binding the diatom | relative binding to VcPA14 (in words) (VcPA14): cannot bind | Kdapp (apparent dissociation constant) (MpPA14 [1]; GFP-MpPA14 bound to Superdex 200 resin released by free sugar, A280, pH 9, 5 mM CaCl2, – = no detectable binding (footnote a)): no measurable interaction | Kd (MpPA14 [1]; [5]): > 18 mM

CC(=O)N[C@@H]1[C@@H](O)[C@H](O)[C@@H](CO)O[C@H]1O [N-acetyl-glucosamine, N-acetylglucosamine]
relative binding to VcPA14 (in words) (VcPA14): more strongly than glucose | ΔH (enthalpy) (MpPA14 [2]): -15,810 ± 226.1 cal/mol | ΔS (entropy) (MpPA14 [2]): -34.9 cal/ mol/K | binding stoichiometry (N value) (MpPA14 [2]): 1 ± 0.0116 | Kd (MpPA14 [2]): 0.17 mM and ~0.15 mM | Kd (MpPA14 [1]): 1.07 mM

O=C[C@H](O)[C@H](O)[C@H](O)CO [Ribose, D-Ribose]
Kd (MpPA14 [1]; [5]): 6.8 mM

O=C[C@H](O)[C@@H](O)[C@H](O)CO [Xylose]
Kd (MpPA14 [1]): 11 mM
